Measurements from publication PMC7531004, “Discovery of gramicidin A analogues with altered activities by multidimensional screening of a one-bead-one-compound library” (Nature Communications, 2020).
Where a SMILES comes first, the peptide text is derived from it. [ ]: non-standard residue; d: D form. The star is where a group is joined. NHCH2CH2OH = OCCN*; For = O=C*

Key:
[1] = H+/Na+ transport assay of bead-derived peptides (one-point); format: biochemical; parameters: key: relative activity; mean of two control wells = 1.00; conditions: bead-derived peptide solution, EYPC/EYPG LUVs;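 note: relative to parent gramicidin A activity set to 1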
In short: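 Pyranine (1.0 mM)-loaded LUVs containing egg yolk phosphatidylglycerol were prepared by film hydration, sonication and extrusion, then mixed with diluted bead-derived peptide in 96-well format and vortexed 30 min at room temperature. Fluorescence was normalized between untreated LUVs (0%) and Triton X-100 lysis (100%).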

[2] = system: P388 mouse leukemia cells; conditions: 92 h
In short: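 Peptide stocks diluted 250× in growth medium; P388 cells 1 × 10^4 cells/mL final; 37 °C, 5% CO2, 92 h. WST-1 + 1-methoxy PMS, 4 h, A415. Output: % viability.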

[3] = system: Streptococcus pyogenes SSI-9; experiment: Antibacterial activity assay of bead-derived peptides (three concentrations); format: cell-based; parameters: key: +++: inhibition by the 640-fold diluted peptide solution; ++: inhibition by the 160-fold diluted solution; +: inhibition by the 40-fold diluted solution; -: no inhibition; conditions: S. pyogenes, bead-derived peptide solution, three concentrations
In short: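 First, each peptide stock was diluted 4- and 16-fold in DMSO; next, the three solutions were mixed with S. pyogenes SSI-9 suspension (2 × 10^5 CFU) in cation-adjusted Mueller Hinton Broth plus 5% laked horse blood; finally, plates stood 18 h at 37 °C before checking for grown-cell precipitation.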

| SMILES | H+/Na+ transport activity normalized against the value of 1 (1.00) [1] | cell viability/% [2] | antibacterial activity [3] |
| --- | --- | --- | --- |
| CC(C)C[C@@H](NC(=O)[C@H](C)NC(=O)CNC(=O)[C@@H](NC=O)C(C)C)C(=O)N[C@@H](C)C(=O)N[C@@H](C(=O)N[C@H](C(=O)N[C@@H](C(=O)N[C@@H](Cc1c[nH]c2ccccc12)C(=O)N[C@@H](C(=O)N[C@@H](Cc1c[nH]c2ccccc12)C(=O)N[C@@H](C(=O)N[C@@H](Cc1c[nH]c2ccccc12)C(=O)N[C@H](CC(C)C)C(=O)N[C@@H](Cc1c[nH]c2ccccc12)C(=O)NCCO)C(C)C)C(C)C)[C@H](C)O)C(C)C)C(C)C [compound 4778] (For-VGA[dL]A[dV]V[dT]W[dV]W[dV]W[dL]W-NHCH2CH2OH) | 1.09 | 100.0% | - |
| CNC(=O)C[C@@H](NC(=O)[C@H](Cc1c[nH]c2ccccc12)NC(=O)[C@H](NC(=O)[C@H](Cc1c[nH]c2ccccc12)NC(=O)[C@H](NC(=O)[C@H](Cc1c[nH]c2ccccc12)NC(=O)[C@@H](CC(C)C)NC(=O)[C@@H](NC(=O)[C@H](NC(=O)[C@H](C)NC(=O)[C@@H](CC(C)C)NC(=O)[C@H](C)NC(=O)CNC(=O)[C@@H](NC=O)C(C)C)C(C)C)C(C)C)C(C)C)C(C)C)C(=O)N[C@@H](Cc1c[nH]c2ccccc12)C(=O)NCCO [compound 4808] (For-VGA[dL]A[dV]V[dL]W[dV]W[dV]W[dD](NHMe)W-NHCH2CH2OH) | 1.02 | 100.0% | - |
| CC(C)C[C@@H](NC(=O)[C@H](Cc1c[nH]c2ccccc12)NC(=O)[C@H](NC(=O)[C@@H](NC(=O)[C@H](NC(=O)[C@H](C)NC(=O)[C@H](NC(=O)[C@H](C)NC(=O)CNC(=O)[C@@H](NC=O)C(C)C)C(C)C)C(C)C)C(C)C)C(C)C)C(=O)N[C@@H](Cc1c[nH]c2ccccc12)C(=O)N[C@@H](C(=O)N[C@@H](Cc1c[nH]c2ccccc12)C(=O)N[C@@H](C(=O)N[C@@H](Cc1c[nH]c2ccccc12)C(=O)NCCO)C(C)C)C(C)C [compound 4830] (For-VGA[dV]A[dV]V[dV]W[dL]W[dV]W[dV]W-NHCH2CH2OH) | 1.18 | 89.5% | ++ |
| CC(C)C[C@@H](NC(=O)[C@H](C)NC(=O)CNC(=O)[C@@H](NC=O)C(C)C)C(=O)N[C@@H](C)C(=O)N[C@@H](C(=O)N[C@H](C(=O)N[C@@H](C(=O)N[C@@H](Cc1c[nH]c2ccccc12)C(=O)N[C@@H](C(=O)N[C@@H](Cc1c[nH]c2ccccc12)C(=O)N[C@H](CC(C)C)C(=O)N[C@@H](Cc1c[nH]c2ccccc12)C(=O)N[C@@H](C(=O)N[C@@H](Cc1c[nH]c2ccccc12)C(=O)NCCO)C(C)C)C(C)C)C(C)C)C(C)C)C(C)C [compound 4884] (For-VGA[dL]A[dV]V[dV]W[dV]W[dL]W[dV]W-NHCH2CH2OH) | 1.27 | 49.1% | ++ |
| CC(C)C[C@@H](NC(=O)[C@H](C)NC(=O)CNC(=O)[C@@H](NC=O)C(C)C)C(=O)N[C@@H](C)C(=O)N[C@@H](C(=O)N[C@H](C(=O)N[C@H](CC(C)C)C(=O)N[C@@H](Cc1c[nH]c2ccccc12)C(=O)N[C@@H](C(=O)N[C@@H](Cc1c[nH]c2ccccc12)C(=O)N[C@H](CC(C)C)C(=O)N[C@@H](Cc1c[nH]c2ccccc12)C(=O)N[C@@H](C(=O)N[C@@H](Cc1c[nH]c2ccccc12)C(=O)NCCO)C(C)C)C(C)C)C(C)C)C(C)C [compound 4895] (For-VGA[dL]A[dV]V[dL]W[dV]W[dL]W[dV]W-NHCH2CH2OH) | 1.16 | 48.2% | + |
